From US9981942B2, “Piperidine derivatives having multimodal activity against pain” (LABORATORIOS DEL DR. ESTEVE S.A., priority 2013, dated 2018)

test system: σ1 receptor and the μ-opiod receptor; assay: μ and σ1 dual binding: combined class from the Ki of both radioligand assays; design: species or system human; key to μ and σ1 dual binding: +: Both Ki-μ and Ki-σ1>=500 nM; ++: One Ki<500 nM while the other Ki is >=500 nM; +++: Both Ki-μ and Ki-σ1<500 nM; ++++: Both Ki-μ and Ki-σ1<100 nM; details: combined class for Ki-μ and Ki-σ1; transfected HEK-293 membranes (σ1), transfected CHO-K1 cell membranes (μ)
In short: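 Classes combine both Ki values, split at 500 nM and 100 nM. Human μ-opioid binding used 1 nM [3H]-DAMGO on CHO-K1 membranes (27 °C, 60 min, pH 7.4, naloxone 10 μM for NSB); human σ1 used 5 nM [3H](+)-pentazocine on HEK-293 membranes (37 °C, 120 min, pH 8, haloperidol 10 μM for NSB).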

Row | Compound | μ and σ1 dual binding
1 | CC(C)S(=O)(=O)Nc1cccc(C2CCN(Cc3cn(C(CO)c4ccccc4)nn3)CC2)c1 (centres unmarked) [Example 130, N-(3-(1-((1-(2-hydroxy-1-phenylethyl)-1H-1,2,3-triazol-4-yl)methyl)piperidin-4-yl)phenyl)propane-2-sulfonamide] | ++
2 | CCS(=O)(=O)Nc1cccc(C2CCN(Cc3cn(Cc4ccccn4)nn3)CC2)c1 [Example 112, N-(3-(1-((1-(pyridin-2-ylmethyl)-1H-1,2,3-triazol-4-yl)methyl)piperidin-4-yl)phenyl)ethanesulfonamide] | ++
3 | Oc1cccc(C2CCN(Cc3cn(Cc4ncccc4O)nn3)CC2)c1 [Example 156, 2-((4-((4-(3-hydroxyphenyl)piperidin-1-yl)methyl)-1H-1,2,3-triazol-1-yl)methyl)pyridin-3-ol] | ++
4 | CN(C)C(=O)Nc1cccc(C2CCN(Cc3cn(-c4ccccc4)nn3)CC2)c1 [Example 38, 1,1-dimethyl-3-(3-(1-((1-phenyl-1H-1,2,3-triazol-4-yl)methyl)piperidin-4-yl)phenyl)urea] | ++
5 | Oc1ccc(C(F)(F)F)c(C2CCN(Cc3cn(-c4ccccc4)nn3)CC2)c1 [Example 12, 3-(1-((1-phenyl-1H-1,2,3-triazol-4-yl)methyl)piperidin-4-yl)-4-(trifluoromethyl)phenol] | ++
6 | CS(=O)(=O)Nc1cc(C2CCN(Cc3cn(Cc4ccccc4)nn3)CC2)ccc1F [Example 90, N-(5-(1-((1-benzyl-1H-1,2,3-triazol-4-yl)methyl)piperidin-4-yl)-2-fluorophenyl)methanesulfonamide] | ++
7 | CC(C)(O)COc1ccc(-n2cc(CN3CCC(c4cccc(O)c4)CC3)nn2)cc1 [Example 106, 3-(1-((1-(4-(2-hydroxy-2-methylpropoxy)phenyl)-1H-1,2,3-triazol-4-yl)methyl)piperidin-4-yl)phenol] | ++
8 | CC(C)S(=O)(=O)Nc1cccc(C2CCN(Cc3cn([C@H]4c5ccccc5C[C@@H]4O)nn3)CC2)c1 [Example 105, N-(3-(1-((1-((1S,2S)-2-hydroxy-2,3-dihydro-1H-inden-1-yl)-1H-1,2,3-triazol-4-yl)methyl)piperidin-4-yl)phenyl)propane-2-sulfonamide] | ++

same assay, conditions: transfected HEK-293 membranes (σ1), transfected CHO-K1 cell membranes (μ)

Row | Compound | Ki range for both μ and σ1 (dual-binding class)
9 | CC(C)S(=O)(=O)Nc1cccc(C2CCN(Cc3cn(-c4ccccc4)nn3)CC2)c1 [Example 1, N-(3-(1-((1-phenyl-1H-1,2,3-triazol-4-yl)methyl)piperidin-4-yl)phenyl)propane-2-sulfonamide] | < 100 nM
10 | CS(=O)(=O)c1cccc(C2CCN(Cc3cn(-c4ccccc4)nn3)CC2)c1 [Example 47, 4-(3-(methylsulfonyl)phenyl)-1-((1-phenyl-1H-1,2,3-triazol-4-yl)methyl)piperidine] | < 500 nM
11 | N#Cc1ccc(Cn2cc(CN3CCC(c4cccc(O)c4)CC3)nn2)cc1 [Example 43, 4-((4-((4-(3-hydroxyphenyl)piperidin-1-yl)methyl)-1H-1,2,3-triazol-1-yl)methyl)benzonitrile] | < 100 nM
12 | OC[C@H](c1ccccc1)n1cc(CN2CCC(c3cccc(O)c3)CC2)nn1 (stereo in doubt) [Example 150, (S)-3-(1-((1-(2-hydroxy-1-phenylethyl)-1H-1,2,3-triazol-4-yl)methyl)piperidin-4-yl)phenol] | < 500 nM
13 | Oc1cccc(C2CCN(Cc3cn([C@H]4CC[C@@H](C(F)(F)F)CC4)nn3)CC2)c1 [Example 82, 3-(1-((1-((1s,4s)-4-(trifluoromethyl)cyclohexyl)-1H-1,2,3-triazol-4-yl)methyl)piperidin-4-yl)phenol] | < 100 nM
14 | Oc1cccc(C2CCN(Cc3cnn(-c4ccccc4)c3)CC2)c1 [Example 164, 3-(1-((1-phenyl-1H-pyrazol-4-yl)methyl)piperidin-4-yl)phenol] | < 100 nM
15 | Oc1cccc(C2CCN(Cc3cn(C4CCCCC4)nn3)CC2)c1 [Example 19, 3-(1-((1-cyclohexyl-1H-1,2,3-triazol-4-yl)methyl)piperidin-4-yl)phenol] | < 100 nM
16 | CC(C)n1cc(CN2CCC(c3cccc(O)c3)CC2)nn1 [Example 23, 3-(1-((1-isopropyl-1H-1,2,3-triazol-4-yl)methyl)piperidin-4-yl)phenol] | < 500 nM
17 | CS(=O)(=O)Nc1cc(F)cc(C2CCN(Cc3cn(-c4ccccc4)nn3)CC2)c1 [Example 35, N-(3-fluoro-5-(1-((1-phenyl-1H-1,2,3-triazol-4-yl)methyl)piperidin-4-yl)phenyl)methanesulfonamide] | < 100 nM
18 | Oc1cccc(C2CCN(Cc3cc(Cc4ccccc4)no3)CC2)c1 [Example 177, 3-(1-((3-benzylisoxazol-5-yl)methyl)piperidin-4-yl)phenol] | < 100 nM
19 | Oc1ccc(Cn2cc(CN3CCC(c4cccc(O)c4)CC3)nn2)nc1 [Example 159, 6-((4-((4-(3-hydroxyphenyl)piperidin-1-yl)methyl)-1H-1,2,3-triazol-1-yl)methyl)pyridin-3-ol] | ≥ 500 nM
20 | CC(C)S(=O)(=O)Nc1cccc(C2CCN(Cc3cnn(Cc4ccccn4)c3)CC2)c1 [Example 167, N-(3-(1-((1-(pyridin-2-ylmethyl)-1H-pyrazol-4-yl)methyl)piperidin-4-yl)phenyl)propane-2-sulfonamide] | < 500 nM
21 | Oc1cccc(C2CCN(Cc3cn(-c4ccccn4)nn3)CC2)c1 [Example 84, 3-(1-((1-(pyridin-2-yl)-1H-1,2,3-triazol-4-yl)methyl)piperidin-4-yl)phenol] | < 100 nM
22 | Oc1cccc(C2CCN(Cc3cn(-c4coc5ccccc45)nn3)CC2)c1 [Example 89, 3-(1-((1-(benzofuran-3-yl)-1H-1,2,3-triazol-4-yl)methyl)piperidin-4-yl)phenol] | < 100 nM
23 | CCC(=O)Nc1cccc(C2CCN(Cc3cnn(-c4ccccc4)c3)CC2)n1 [Example 202, N-(6-(1-((1-phenyl-1H-pyrazol-4-yl)methyl)piperidin-4-yl)pyridin-2-yl)propionamide] | < 100 nM
24 | Oc1cccc(C2CCN(Cc3cn(-c4ccc(C(F)(F)F)cc4F)nn3)CC2)c1 [Example 226, 3-(1-((1-(2-fluoro-4-(trifluoromethyl)phenyl)-1H-1,2,3-triazol-4-yl)methyl)piperidin-4-yl)phenol] | < 100 nM
25 | CS(=O)(=O)Nc1cccc(C2CCN(Cc3cc(Cc4ccccc4)no3)CC2)c1 [Example 178, N-(3-(1-((3-benzylisoxazol-5-yl)methyl)piperidin-4-yl)phenyl)methanesulfonamide] | < 500 nM
26 | CS(=O)(=O)Nc1cccc([C@@H]2CCN(Cc3cnn(-c4ccccc4)c3)C[C@@H]2O)c1 [Example 165, N-(3-((3R,4S)-3-hydroxy-1-((1-phenyl-1H-pyrazol-4-yl)methyl)piperidin-4-yl)phenyl)methanesulfonamide] | < 500 nM
27 | CS(=O)(=O)Nc1cccc(C2CCN(Cc3cn(Cc4ccccc4)nn3)CC2)c1 [Example 37, N-(3-(1-((1-benzyl-1H-1,2,3-triazol-4-yl)methyl)piperidin-4-yl)phenyl)methanesulfonamide] | < 500 nM
28 | CC(C)S(=O)(=O)Nc1cccc(C2CCN(Cc3cn(Cc4ncccc4F)nn3)CC2)c1 [Example 114, N-(3-(1-((1-((3-fluoropyridin-2-yl)methyl)-1H-1,2,3-triazol-4-yl)methyl)piperidin-4-yl)phenyl)propane-2-sulfonamide] | < 500 nM
29 | Oc1cccc(C2CCN(Cc3cn(-c4cccnc4)nn3)CC2)c1 [Example 10, 3-(1-((1-(pyridin-3-yl)-1H-1,2,3-triazol-4-yl)methyl)piperidin-4-yl)phenol] | < 500 nM
30 | CS(=O)(=O)Nc1cccc(C2CCN(Cc3cn(-c4cccc(F)c4)nn3)CC2)c1 [Example 28, N-(3-(1-((1-(3-fluorophenyl)-1H-1,2,3-triazol-4-yl)methyl)piperidin-4-yl)phenyl)methanesulfonamide] | < 100 nM
31 | Oc1cccc(C2CCN(Cc3cn(-c4ccc(F)cc4F)nn3)CC2)c1 [Example 155, 3-(1-((1-(2,4-difluorophenyl)-1H-1,2,3-triazol-4-yl)methyl)piperidin-4-yl)phenol] | < 100 nM
32 | Oc1cccc(C2CCN(Cc3cn(Cc4cc(C(F)(F)F)ccn4)nn3)CC2)c1 [Example 160, 3-(1-((1-((4-(trifluoromethyl)pyridin-2-yl)methyl)-1H-1,2,3-triazol-4-yl)methyl)piperidin-4-yl)phenol] | < 100 nM
33 | CS(=O)(=O)Nc1cccc(C2CCN(Cc3cn([C@@H]4c5ccccc5C[C@H]4O)nn3)CC2)c1 [Example 92, N-(3-(1-((1-((1R,2R)-2-hydroxy-2,3-dihydro-1H-inden-1-yl)-1H-1,2,3-triazol-4-yl)methyl)piperidin-4-yl)phenyl)methanesulfonamide] | < 500 nM
34 | Oc1cccc(C2CCN(Cc3cn(Cc4ccncc4)nn3)CC2)c1 [Example 54, 3-(1-((1-(pyridin-4-ylmethyl)-1H-1,2,3-triazol-4-yl)methyl)piperidin-4-yl)phenol] | < 500 nM
35 | CS(=O)(=O)Nc1ccnc(C2CCN(Cc3cn(-c4ccccc4)nn3)CC2)c1 [Example 193, N-(2-(1-((1-phenyl-1H-1,2,3-triazol-4-yl)methyl)piperidin-4-yl)pyridin-4-yl)methanesulfonamide] | ≥ 500 nM
